Experimental data taken from patent US10167270B2, “Substituted quinazoline compounds and uses thereof for modulating glucocerebrosidase activity” (Northwestern University, priority 2015, dated 2019).
“Also recorded” adds a separate entry of the source. Read-outs that look alike come from different tables or passages of the source. Values belong to the molecule of their own block, whether it stands above or below them.

What was measured:
wild-type GCase [1] = target: T1, wild-type GCase (Homo sapiens (Human), UniProt P04062); experiment: GCase enzyme activity assay (4MU-β-Glc, no taurocholate); type: biochemical
T1 sequence (P04062 40-536): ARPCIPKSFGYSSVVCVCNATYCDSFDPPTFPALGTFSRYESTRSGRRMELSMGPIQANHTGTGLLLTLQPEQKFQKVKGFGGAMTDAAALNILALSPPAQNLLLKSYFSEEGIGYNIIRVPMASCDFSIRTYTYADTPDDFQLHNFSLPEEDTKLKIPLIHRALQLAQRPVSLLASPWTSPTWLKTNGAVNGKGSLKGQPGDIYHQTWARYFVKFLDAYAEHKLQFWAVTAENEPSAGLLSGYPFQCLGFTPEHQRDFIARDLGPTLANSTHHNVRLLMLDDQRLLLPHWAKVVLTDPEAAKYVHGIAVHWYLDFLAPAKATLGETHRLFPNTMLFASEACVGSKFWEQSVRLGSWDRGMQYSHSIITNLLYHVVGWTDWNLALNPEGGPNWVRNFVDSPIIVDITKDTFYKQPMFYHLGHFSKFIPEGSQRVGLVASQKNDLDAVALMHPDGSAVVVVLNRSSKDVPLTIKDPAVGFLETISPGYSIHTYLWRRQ
Method: In previous studies, high concentrations of taurocholate (4-10 mM) were used to improve the signal in GCase enzyme activity assays^16,27,28. […] Here we describe our modifications of the substituents on the quinazoline ring.
4-Methylumbelliferyl β-D-glucopyranoside (4MU-β-Glc), 4-methylumbelliferyl α-D-glucopyranoside,4-methylumbelliferyl α-D-galactopyranoside, and buffer components were purchased from Sigma-Aldrich (St. Louis, Mo.). The recombinant wild-type GCase enzyme velaglucerase alfa (Vpriv®, Shire Human Genetic Therapies, Inc.), acid α-glucosidase enzyme alglucosidase alfa (Lumizyme®, Genzyme Corporation), α-galactosidase A enzyme agalsidase beta (Fabrazyme®, Genzyme Corporation) were used in activity assays. […] A solution of 1 M sodium hydroxide and 1 M glycine (pH 10) was used as the stop solution for all three enzyme activity assays.
The compounds in DMSO solution (0.5 μL/well) were transferred to a black 96-well plate (the final titration started from 100 μM, a 12 or 24-point 2-fold dilution series). […] After 5 min of incubation at room temperature, the enzyme reaction was initiated by the addition of blue substrate (4MU-13-Glc) (33 μL/well). The final concentration of the blue substrate was 1.5 mM. The blue substrate reaction was terminated by the addition of 33 μL/well stop solution (1 M NaOH and 1 M glycine mixture, pH 10) after 30 min of incubation at 37° C. […] The selected compounds were further assayed under pH 5.0 and pH 7.0 to evaluate their selectivity under various pH conditions.

wild-type GCase [2] = target: T1, wild-type GCase; experiment: Fluorescence thermal shift analysis; type: binding; conditions: pH 5.0, in words
Description: Compounds shown to act as pharmacological chaperones for GCase (or other lysosomal enzymes) also stabilize the enzyme against thermal denaturation. A fluorescent thermal shift assay was developed to evaluate the binding affinity of ligands with protein^30. […] The maximum thermal shift of these compounds corresponded to their inhibitory activity at pH 5.0.
A robotic pipeline in the High Throughput Analysis Laboratory (HTAL) was used for protein ligand screening by fluorescence thermal shift (FTS) analysis. The pipeline used a Mosquito robot (TTP Labtech) for protein dispensing and an Echo 550 (Labcyte) to add compounds. Thermal scanning coupled with fluorescence detection was performed on a real-time PCR machine CFX384 (Bio-Rad Laboratories). The assay was run in 384-well PCR plates, using 10 μL citric acid/K2HPO4 buffer (50 mM citric acid, 150 mM K2HPO4, pH 5.0) per well. The assay concentration for protein was 1 μM and that for Sypro Orange (Invitrogen) was 5×. Protein was premixed with Sypro Orange and dispensed to a plate first, and compounds were added. Final concentrations of compounds ranged from 0.5 to 200 μM. Then the plate was sealed with an optical seal, shaken, and centrifuged. The thermal scan was from 10 to 95° C. with a temperature ramp rate of 1.5° C./min. The fluorescence was recorded every 10 sec. Data analysis and report generation were performed using the in-house software excelFTS.

α-galactosidase A (GLA) = α-galactosidase A (GLA) (Homo sapiens (Human), UniProt P06280); experiment: Enzyme selectivity assay, α-galactosidase A; type: biochemical; conditions: up to 100 μM
Sequence of α-galactosidase A (GLA) (P06280 32-429): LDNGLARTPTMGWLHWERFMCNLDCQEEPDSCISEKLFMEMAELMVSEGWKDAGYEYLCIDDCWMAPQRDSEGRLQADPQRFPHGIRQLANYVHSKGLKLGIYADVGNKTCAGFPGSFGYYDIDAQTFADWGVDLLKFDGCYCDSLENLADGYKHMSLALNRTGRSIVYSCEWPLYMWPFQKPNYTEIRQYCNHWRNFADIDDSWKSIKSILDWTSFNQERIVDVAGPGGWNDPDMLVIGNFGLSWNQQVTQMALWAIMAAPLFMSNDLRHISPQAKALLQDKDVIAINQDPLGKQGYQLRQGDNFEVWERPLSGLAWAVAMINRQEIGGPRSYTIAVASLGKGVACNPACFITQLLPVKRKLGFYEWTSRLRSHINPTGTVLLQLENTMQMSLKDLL
Description: (§1) Louis, Mo.). The recombinant wild-type GCase enzyme velaglucerase alfa ([…] Human Genetic Therapies, Inc.), acid α-glucosidase enzyme alglucosidase alfa (Lumizyme®, Genzyme Corporation), α-galactosidase A enzyme agalsidase beta (Fabrazyme®, Genzyme Corporation) were used in activity assays. […] The acid α-glucosidase and α-galactosidase A enzyme activity assay methods were similar to the GCase enzyme activity assay above with slight modifications.

acid α-glucosidase (GAA) = acid α-glucosidase (GAA) (Homo sapiens (Human), UniProt P10253); experiment: Enzyme selectivity assay, acid α-glucosidase; type: biochemical; conditions: up to 100 μM
Description: as §1

[3] = target: N370S mutant GCase in patient fibroblasts (Homo sapiens (Human), UniProt P04062, N370S); experiment: GCase protein level in N370S fibroblasts by Western blot; type: cell-based; conditions: 3 days treatment
Sequence of N370S mutant GCase in patient fibroblasts (P04062 40-536 N409S): as the sequence (P04062 40-536) above, with N370S counted along it
Method: The N370S fibroblast cell line was obtained from Coriell, GM00372, cultured in DMEM medium (Life Tech) including 1% v/v L-glutamine 200 mM (Life Tech), 1% v/v pen strep (Life Tech), 10% FBS (Life Tech) at 37° C. and 5% CO2 and treated with different compounds at 0.2 μM and 2 μM. After a 3-day treatment, cells were washed with inhibitor free media 3 times and fed with inhibitor free media for 1 day, followed by 1% Triton X-100 lysis buffer to lyse cells. Protein concentrations were measured with a Bradford kit (Thermo), and the GCase activity was determined at pH 5.5.
Proteins were denatured in 20% SDS sample buffer at 100° C. for 10 min; 10% Bis-Tris gel (Life Tech) was used for gels; Trans-Blot Turbo PVDF kit (Bio-Rad) was used for membrane transfer, and Chemidoc MP system (Bio-Rad) was used to analyze the blots.

[4] = Table 1, pH 5.9, mean ± SD, read-out: IC50
[5] = Table 2, pH 5.9, mean ± SD, read-out: IC50
[6] = Table 3, pH 5.9, mean ± SD, read-out: IC50
[7] = Table 4, pH 5.9, mean ± SD, read-out: IC50
[8] = pH 5.0, mean ± SD, read-out: IC50 pH 5.0
[9] = pH 7.0, mean ± SD, read-out: IC50 pH 7.0
[10] = Table 5, pH 5.9, mean ± SD, read-out: IC50

IC50 (wild-type GCase [1]; [4]): 56 ± 5 nM
SMILES: CC1CCC(Nc2nc(-c3cccnc3)nc3ccccc23)CC1 (single isomer, unassigned) [Compound 6a]

IC50 (wild-type GCase [1]; [4]): 20 ± 2 nM
IC50 (wild-type GCase [1]; read-out: IC50): 20 nM
SMILES: CC1CCC(Nc2nc(-c3cccnc3)nc3ccccc23)CC1 (single isomer, unassigned) [Compound 6c]

SMILES: c1cncc(-c2nc(NC3CCc4ccccc4C3)c3ccccc3n2)c1 (single isomer, unassigned) [Compound 9a]
stabilization of GCase (melting point change) (wild-type GCase [2]): stabilize wild-type GCase in a dose-dependent manner; also recorded: increased the GCase melting point in a dose-dependent manner
activity of α-galactosidase A on compound treatment (α-galactosidase A (GLA)): not significantly changed
decrease of inhibitory activity at pH 5.0 compared to pH 5.9 (wild-type GCase [1]): 3 fold
activity of acid α-glucosidase on compound treatment (acid α-glucosidase (GAA)): not significantly changed

IC50 (wild-type GCase [1]; [4]): 126 ± 7 nM
SMILES: CCC1CCC(Nc2nc(-c3cccnc3)nc3ccccc23)CC1 (stereo not drawn) [Compound 6b]

SMILES: COC1CCC(Nc2nc(-c3cccnc3)nc3ccccc23)CC1 (stereo not drawn) [Compound 6d]
IC50 (wild-type GCase [1]; [4]): 251 ± 18 nM

IC50 (wild-type GCase [1]; [4]): 431 ± 42 nM
SMILES: CC1(C)CCC(Nc2nc(-c3cccnc3)nc3ccccc23)CC1 [Compound 6e]

IC50 (wild-type GCase [1]; [4]): 234 ± 17 nM
SMILES: FC1(F)CCC(Nc2nc(-c3cccnc3)nc3ccccc23)CC1 [Compound 6f]

IC50 (wild-type GCase [1]; Table 1, pH 5.9, mean ± SD): Inactive
SMILES: CN(C)C1CCC(Nc2nc(-c3cccnc3)nc3ccccc23)CC1 (stereo not drawn) [Compound 6g]

IC50 (wild-type GCase [1]; [4]): 891 ± 23 nM
SMILES: c1cncc(-c2nc(NC3CCCOC3)c3ccccc3n2)c1 (stereo not drawn) [Compound 6h]

IC50 (wild-type GCase [1]; Table 1, pH 5.9, mean ± SD): Inactive
SMILES: CN1CCC(Nc2nc(-c3cccnc3)nc3ccccc23)CC1 [Compound 6i]

IC50 (wild-type GCase [1]; [4]): 33200 ± 9710 nM
SMILES: CC(C)N1CCC(Nc2nc(-c3cccnc3)nc3ccccc23)CC1 [Compound 6j]

IC50 (wild-type GCase [1]; [4]): 36100 ± 8720 nM
SMILES: c1ccc(CN2CCC(Nc3nc(-c4cccnc4)nc4ccccc34)CC2)cc1 [Compound 6k]

IC50 (wild-type GCase [1]; [5]): 27 ± 2 nM
SMILES: c1cncc(-c2nc(NC3CCCCCCC3)c3ccccc3n2)c1 [Compound 7a]

IC50 (wild-type GCase [1]; [5]): 42 ± 3 nM
SMILES: c1cncc(-c2nc(NC3CCCCCC3)c3ccccc3n2)c1 [Compound 7b]

IC50 (wild-type GCase [1]; [5]): 720 ± 50 nM
SMILES: c1cncc(-c2nc(NC3CCCC3)c3ccccc3n2)c1 [Compound 7c]

IC50 (wild-type GCase [1]; [5]): 2840 ± 340 nM
SMILES: c1cncc(-c2nc(NC3CCC3)c3ccccc3n2)c1 [Compound 7d]

IC50 (wild-type GCase [1]; [5]): 28100 ± 3210 nM
SMILES: c1cncc(-c2nc(NC3CC3)c3ccccc3n2)c1 [Compound 7e]

IC50 (wild-type GCase [1]; [5]): 926 ± 80 nM
SMILES: c1cncc(-c2nc(NC34CC5CC(CC(C5)C3)C4)c3ccccc3n2)c1 [Compound 7f]

IC50 (wild-type GCase [1]; [5]): 282 ± 43 nM
SMILES: c1cncc(-c2nc(NC3CC4CCC3C4)c3ccccc3n2)c1 (stereo not drawn) [Compound 7g]

IC50 (wild-type GCase [1]; [5]): 405 ± 40 nM
SMILES: c1cncc(-c2nc(NCC3CCCCC3)c3ccccc3n2)c1 [Compound 7h]

IC50 (wild-type GCase [1]; [5]): 857 ± 33 nM
SMILES: c1cncc(-c2nc(NCCC3CCCCC3)c3ccccc3n2)c1 [Compound 7i]

SMILES: c1ccc(Nc2nc(-c3cccnc3)nc3ccccc23)cc1 [Compound 8a]
stabilization of GCase (melting point change) (wild-type GCase [2]): did not change the melting points significantly
GCase inhibitory activity in words (wild-type GCase [1]): lost activity
IC50 (wild-type GCase [1]; Table 3, pH 5.9, mean ± SD): inactive

SMILES: c1ccc(CNc2nc(-c3cccnc3)nc3ccccc23)cc1 [Compound 8b]
IC50 (wild-type GCase [1]; [6]): 5770 ± 820 nM

IC50 (wild-type GCase [1]; [6]): 97 ± 9 nM
SMILES: c1ccc(CCNc2nc(-c3cccnc3)nc3ccccc23)cc1 [Compound 8c]

IC50 (wild-type GCase [1]; [6]): 1530 ± 220 nM
SMILES: c1ccc(CCCNc2nc(-c3cccnc3)nc3ccccc23)cc1 [Compound 8d]

IC50 (wild-type GCase [1]; [6]): 1280 ± 130 nM
SMILES: c1ccc(CCCCNc2nc(-c3cccnc3)nc3ccccc23)cc1 [Compound 8e]

IC50 (wild-type GCase [1]; [6]): 1400 ± 120 nM
SMILES: c1ccc(CCNc2nc(-c3cccnc3)nc3ccccc23)nc1 [Compound 8f]

IC50 (wild-type GCase [1]; [6]): 4290 ± 570 nM
SMILES: c1cncc(CCNc2nc(-c3cccnc3)nc3ccccc23)c1 [Compound 8g]

SMILES: c1cncc(-c2nc(N[C@@H]3CCc4ccccc4C3)c3ccccc3n2)c1 [Compound 9b]
stabilization of GCase (melting point change) (wild-type GCase [2]): stabilize wild-type GCase in a dose-dependent manner; also recorded: increased the GCase melting point in a dose-dependent manner
activity of α-galactosidase A on compound treatment (α-galactosidase A (GLA)): not significantly changed
decrease of inhibitory activity at pH 5.0 compared to pH 5.9 (wild-type GCase [1]): 3 fold
activity of acid α-glucosidase on compound treatment (acid α-glucosidase (GAA)): not significantly changed

IC50 (wild-type GCase [1]; [7]): 8.3 ± 1 nM
IC50 (wild-type GCase [1]; [8]): 25.9 ± 3.9 nM
IC50 (wild-type GCase [1]; [9]): 12.7 ± 1.4 nM
SMILES: c1cncc(-c2nc(NC3Cc4ccccc4C3)c3ccccc3n2)c1 [Compound 9c]

SMILES: c1cncc(-c2nc(NC3CCCc4ccccc43)c3ccccc3n2)c1 (stereo not drawn) [Compound 9d]
GCase inhibitory activity in words (wild-type GCase [1]): low micromolar range
IC50 (wild-type GCase [1]; [7]): 872 ± 71 nM

GCase inhibitory activity in words (wild-type GCase [1]): low micromolar range
IC50 (wild-type GCase [1]; [7]): 821 ± 73 nM
SMILES: c1cncc(-c2nc(NC3CCc4ccccc43)c3ccccc3n2)c1 (stereo not drawn) [Compound 9e]

IC50 (wild-type GCase [1]; [10]): 122 ± 12 nM
SMILES: Cc1ccncc1-c1nc(NC2Cc3ccccc3C2)c2ccccc2n1 [Compound 11a, N-(2,3-dihydro-1H-inden-2-yl)-2-(4-methylpyridin-3-yl)quinazolin-4-amine]

IC50 (wild-type GCase [1]; [10]): 12.5 ± 1.7 nM
SMILES: Cc1cncc(-c2nc(NC3Cc4ccccc4C3)c3ccccc3n2)c1 [Compound 11b, N-(2,3-dihydro-1H-inden-2-yl)-2-(5-methylpyridin-3-yl)quinazolin-4-amine]

IC50 (wild-type GCase [1]; [10]): 29.4 ± 3.6 nM
SMILES: Cc1ccc(-c2nc(NC3Cc4ccccc4C3)c3ccccc3n2)cn1 [Compound 11c, N-(2,3-dihydro-1H-inden-2-yl)-2-(6-methylpyridin-3-yl)quinazolin-4-amine]

activity of α-galactosidase A on compound treatment (α-galactosidase A (GLA)): not significantly changed
IC50 (wild-type GCase [1]; [10]): 6.5 ± 0.7 nM
IC50 (wild-type GCase [1]; [8]): 10.5 ± 1.5 nM
IC50 (wild-type GCase [1]; [9]): 9.4 ± 1.4 nM
activity of acid α-glucosidase on compound treatment (acid α-glucosidase (GAA)): not significantly changed
SMILES: c1ccc(-c2nc(NC3Cc4ccccc4C3)c3ccccc3n2)cc1 [Compound 11d, N-(2,3-dihydro-1H-inden-2-yl)-2-phenylquinazolin-4-amine]
stabilization of GCase (melting point change) (wild-type GCase [2]): stabilize wild-type GCase in a dose-dependent manner; also recorded: increased the GCase melting point in a dose-dependent manner
concentration of GCase protein [3]: significantly increased the concentration of GCase

IC50 (wild-type GCase [1]; [10]): 168 ± 18 nM
SMILES: c1ccc2c(c1)CC(Nc1nc(-c3ccncc3)nc3ccccc13)C2 [Compound 11e, N-(2,3-dihydro-1H-inden-2-yl)-2-(pyridin-4-yl)quinazolin-4-amine]

SMILES: c1coc(-c2nc(NC3Cc4ccccc4C3)c3ccccc3n2)c1 [Compound 11h, N-(2,3-dihydro-1H-inden-2-yl)-2-(furan-2-yl)quinazolin-4-amine]
IC50 (wild-type GCase [1]; [10]): 21.1 ± 2.4 nM
